Literature values as cited in patent publication EP0225997A2, “Use of urea derivatives for preparing a pharmaceutical composition for the treatment of a virus-induced disease” (Die Deutsches Primatenzentrum GmbH, priority 1985, dated 1987).

System: HTLV-III
Conditions: Mitsuya et al. Science, 226 page 172-174, 1984

Compound: Cc1ccc(C(=O)Nc2ccc(S(=O)(=O)O)c3cc(S(=O)(=O)O)cc(S(=O)(=O)O)c23)cc1NC(=O)c1cccc(NC(=O)Nc2cccc(C(=O)Nc3cc(C(=O)Nc4ccc(S(=O)(=O)O)c5cc(S(=O)(=O)O)cc(S(=O)(=O)O)c45)ccc3C)c2)c1 [suramin]
- HTLV-III replications in culture: reduce HTLV-III replications in culture
